US20250243219A1, “MACROCYCLIC COMPOUNDS AND USES THEREOF” (Cypralis Limited, priority 2022, published 2025)
pKi: −log10 of the molar value.

Legend:
SH-SY5Y cells = assay: Thapsigargin treated cell death assay in SH-SY5Y cells; type: cell-based, human; settings: compound at 10 μM, positive = protection from cell death, negative = compound toxicity
Description: Thapsigargin raises intracellular free calcium (Ca^2+) by potently inhibiting the endoplasmic reticulum Ca-ATPase, which sequesters Ca^2+ from the cytosol. The increased cytosolic Ca^2+ concentration is buffered by mitochondria by exchanging Ca^2+ for K, leading to depolarisation in the inner mitochondrial membrane and permeability transition.
The thapsigargin treated Jurkat cell death assay is a homogeneous 96 well plate based assay for cell death, instigated by the opening of the mitochondrial permeability transition pore (MPTP). The addition of thapsigargin to Jurkat cells results in an influx of calcium, the increase in intracellular calcium will initially be buffered by the mitochondria, but eventually the increasing calcium concentration will result in the opening of the MPTP, resulting in cell death.
CellTox™ Green is a dye which is unable to enter the cell until cell death leads to the loss of membrane integrity. Once this happens the CellTox™ Green enters the cell, binds to the cell's DNA and emits a fluorescent signal. […] Unless otherwise stated, the assay is typically run using a range of three compound concentrations of 1, 3 and 10 μM in triplicate and is read kinetically over a period of 24 hours. Compounds are added 30 minutes before the addition of thapsigargin. Compound only controls and positive control, cyclosporin A (CsA) (3 and 10 μM) are also included in the assay. Results are typically calculated at the 8 hour time point and the kinetic data is also reported.
The assay is carried out as described for the Jurkat cells but using the SH-SY5Y (human neuroblastoma) cell line instead of Jurkat cells. The results are shown in the fourth column of Table 5 (SY5Y [10 μM]% recovery). Positive numbers indicate protection from cell death, negative numbers indicate compound toxicity.

[1] = system: permeabilised HepG2 cells; assay: Calcium retention capacity (CRC) assay in permeabilised HepG2 cells (MPTP opening); type: cell-based, human; design: CRC [10 μM]: unit not given here; settings: compound at 10 μM; for CRC [10 μM]: digitonin permeabilised HepG2 cells; for CRC [10 μM] (ratio vs CsA): normalised to cyclosporin A, value in brackets
Description: The use of permeabilised cells means that inhibitory compounds that may not normally enter non-permeabilised cells are more likely to be active.
The calcium retention capacity (CRC) is a measure of the capability of mitochondria to retain calcium, primarily in the form of calcium phosphates, in the mitochondrial matrix.
In a CRC assay, the calcium indicator Calcium Green-5N (InVitrogen) is utilized. […] The assay is carried out in HepG2 (human hepatocellular carcinoma) cells which are digitonin permeabilized. Trains of calcium pulses (typically 5 μM additions) are added which results in a sudden increase in fluorescence which is then reduced by mitochondrial buffering. The cells will reach a point at which the calcium addition is no longer buffered, an indication that the MPTP has opened (mitochondrial permeability transition).
The experiment is performed with and without inhibitor. A compound that acts to inhibit the mitochondrial pore opening will result in a greater requirement for calcium to reach the transition point. The results are normalised to a positive control (cyclosporin A) in each experiment. The results are shown in column 3 of Table 5 as CRC [10 μM] (ratio vs CsA). The method of digitonin permeabilised whole cell CRC assay is similar to that used by Chiara et al. (PLoS One, March, 3, 3, e1852 (2008)).

cyclophilin D = cyclophilin D (Homo sapiens (Human), UniProt P30405); assay: Functional peptidyl prolyl isomerase (PPIase) spectrophotometric assay, cyclophilin D; type: biochemical; settings: second value of CypA/D cell; read-out: Ki CypD
Sequence of cyclophilin D (P30405 30-207, species assumed): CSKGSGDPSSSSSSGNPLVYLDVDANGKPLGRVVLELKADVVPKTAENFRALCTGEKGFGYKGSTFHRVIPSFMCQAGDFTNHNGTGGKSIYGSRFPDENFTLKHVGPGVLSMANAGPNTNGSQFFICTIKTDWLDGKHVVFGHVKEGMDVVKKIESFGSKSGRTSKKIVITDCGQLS
Description: (§1) Cyclophilins are enzymes that catalyse the cis-trans isomerisation of peptide bonds to the amino acid proline. This event is important in many biological processes, including protein folding and signal transduction. […] The method to measure this activity and its inhibition is similar to that described by Jankowski (Analytical Biochemistry, 252, 2, 299-307 (1997)). The assay measures the cis to trans isomerisation of a peptide substrate catalysed by a PPlase enzyme using a UV/Vis spectrophotometer. This assay is a manual single cuvette-based assay. A first order rate equation is fitted to the absorbance data to obtain a rate constant. The catalytic rate is calculated from the enzymatic rate minus the background rate. The Ki (the concentration required to produce half maximum inhibition) for an inhibitor is obtained from the rate constant plotted against the inhibitor concentration. Typically, a 6-point dose response curve is obtained from duplicates and a Ki determined. Data are given in Table 5 as Ki [nM] for cyclophilins A and D, expressed in column 2 of Table 5 as Ki (cypA)/Ki (cypD).

cyclophilin A = cyclophilin A (Homo sapiens (Human), UniProt P62937); assay: Functional peptidyl prolyl isomerase (PPIase) spectrophotometric assay, cyclophilin A; type: biochemical; settings: first value of CypA/D cell
Sequence of cyclophilin A (P62937 whole entry, species assumed): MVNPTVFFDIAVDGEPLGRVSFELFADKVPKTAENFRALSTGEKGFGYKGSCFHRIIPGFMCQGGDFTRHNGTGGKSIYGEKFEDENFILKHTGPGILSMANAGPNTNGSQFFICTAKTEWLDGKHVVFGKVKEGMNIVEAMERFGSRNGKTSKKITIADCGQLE
Description: as §1

| Compound | CRC [10 μM] [1] | CRC [10 μM] (ratio vs CsA) [1] | pKi (cyclophilin D) | pKi (cyclophilin A) | SYSY [10 μM] % recovery (SH-SY5Y cells) | further results |
| --- | --- | --- | --- | --- | --- | --- |
| C[C@@H]1NC(=O)[C@@H](CC2CCCNC2)OC(=O)C(C)(C)/C=C/c2ccc3ccc(nc3c2)N(C)NC(=O)[C@@H]2CCCN(N2)C1=O (single isomer, unassigned) [Compound (30)] | 10 | 0.33 | 6.35 | – | – | SYSY [10 μM] % recovery (SH-SY5Y cells; listed as 30): 10% |
| C[C@@H]1NC(=O)[C@@H](CC2CCCNC2)OC(=O)C(C)(C)/C=C/c2ccc3ccc(nc3c2)N(C)NC(=O)[C@@H]2CCCN(N2)C1=O (single isomer, unassigned) [Compound (31)] | 10 | 0.33 | 6.74 | 6.10 | – | SYSY [10 μM] % recovery (SH-SY5Y cells; listed as 31): 12% |
| C[C@@H]1NC(=O)[C@@H](CC2CCCNC2)OC(=O)C(C)(C)/C=C/c2ccc3ccc(nc3c2)N(C)N(C)C(=O)[C@@H]2CCCN(N2)C1=O (single isomer, unassigned) [Compound (33)] | 5 | – | 5.42 | 6.55 | 9% | CRC [10 μM] (ratio vs CsA) ([1]; listed as 33): 0.2 |
| CNC(=O)c1ccc(CC2OC(=O)C(C)(C)/C=C/c3ccc4ccc(nc4c3)N(C)NC(=O)[C@@H]3CCCN(N3)C(=O)[C@H](C)NC2=O)cc1 (single isomer, unassigned) [Compound (38)] | – | – | 6.72 | 6.80 | – | SYSY [10 μM] % recovery (SH-SY5Y cells; listed as 38): 8%; CRC [10 μM] ([1]; listed as 38): 7.5; CRC [10 μM] (ratio vs CsA) ([1]; listed as 38): 0.33 |
| CNC(=O)c1ccc(CC2OC(=O)C(C)(C)/C=C/c3ccc4ccc(nc4c3)N(C)NC(=O)[C@@H]3CCCN(N3)C(=O)[C@H](C)NC2=O)cc1 (single isomer, unassigned) [Compound (39)] | – | – | 7.44 | 7.52 | – | SYSY [10 μM] % recovery (SH-SY5Y cells; listed as 39): 0%; CRC [10 μM] ([1]; listed as 39): 15; CRC [10 μM] (ratio vs CsA) ([1]; listed as 39): 0.67 |
| C[C@@H]1NC(=O)C(Cc2ccc(C(=O)O)cc2)OC(=O)C(C)(C)/C=C/c2ccc3ccc(nc3c2)N(C)NC(=O)[C@@H]2CCCN(N2)C1=O (single isomer, unassigned) [Compound (40)] | – | – | – | – | – | SYSY [10 μM] % recovery (SH-SY5Y cells; listed as 40): 51%; CRC [10 μM] ([1]; listed as 40): 5; CRC [10 μM] (ratio vs CsA) ([1]; listed as 40): 0.33 |
| C[C@@H]1NC(=O)C(Cc2ccc(C(=O)O)cc2)OC(=O)C(C)(C)/C=C/c2ccc3ccc(nc3c2)N(C)NC(=O)[C@@H]2CCCN(N2)C1=O (single isomer, unassigned) [Compound (41)] | – | – | 6.66 | 7.52 | – | SYSY [10 μM] % recovery (SH-SY5Y cells; listed as 41): 0%; CRC [10 μM] ([1]; listed as 41): 10; CRC [10 μM] (ratio vs CsA) ([1]; listed as 41): 0.67 |
| CC(C)[C@H]1OC(=O)C/C=C/c2ccc3ccc(nc3c2)N(C)NC(=O)[C@@H]2CCCN(N2)C(=O)[C@H](C)NC1=O (stereo in doubt) [Compound (1)] | 35 | 0.95 | 7.27 | 7.60 | 8.4% | – |
| CC(C)[C@@H]1OC(=O)C(C)(C)/C=C/c2ccc3ccc(nc3c2)N(Cc2ccccc2)NC(=O)[C@@H]2CCCN(N2)C(=O)[C@H](C)NC1=O [Compound (9)] | 279.4 | 1 | 8.37 | 8.77 | 87.067% | – |
| CNC(=O)c1ccc(C[C@@H]2OC(=O)C(C)(C)/C=C/c3ccc4ccc(nc4c3)N(C)N(C)C(=O)[C@@H]3CCCN(N3)C(=O)[C@H](C)NC2=O)cc1 [Compound (12)] | 15 | 0.75 | 7.31 | 6.62 | 25% | – |
| COC[C@@]1(C)/C=C/c2ccc3ccc(nc3c2)N(C)NC(=O)[C@@H]2CCCN(N2)C(=O)[C@H](C)NC(=O)[C@H](C(C)C)OC1=O [Compound (13)] | 35 | 0.95 | 7.96 | 8.31 | 8.4% | – |
| COC[C@]1(C)/C=C/c2ccc3ccc(nc3c2)N(C)NC(=O)[C@@H]2CCCN(N2)C(=O)[C@H](C)NC(=O)[C@H](C(C)C)OC1=O [Compound (14)] | 40 | 1.09 | 7.60 | 7.77 | 9.3% | – |
| CC(C)[C@@H]1OC(=O)[C@](C)(Cc2ccccc2)/C=C/c2ccc3ccc(nc3c2)N(C)NC(=O)[C@@H]2CCCN(N2)C(=O)[C@H](C)NC1=O [Compound (16)] | 25 | 0.83 | 7.85 | 8.77 | 62% | – |
| CC(C)[C@@H]1OC(=O)[C@@](C)(Cc2ccccc2)/C=C/c2ccc3ccc(nc3c2)N(C)NC(=O)[C@@H]2CCCN(N2)C(=O)[C@H](C)NC1=O [Compound (17)] | 33.3 | 0.95 | 8.05 | 8.77 | 87.8% | – |
| CC(C)[C@@H]1OC(=O)C2(/C=C/c3ccc4ccc(nc4c3)N(C)NC(=O)[C@@H]3CCCN(N3)C(=O)[C@H](C)NC1=O)CCCC2 [Compound (21)] | 32.5 | 0.93 | 8.21 | 8.60 | 33.8% | – |
| CC(C)[C@@H]1NC(=O)C(C)(C)/C=C/c2ccc3ccc(nc3c2)N(C)NC(=O)[C@@H]2CCCN(N2)C(=O)[C@H](C)NC1=O [Compound (22)] | 25 | 0.83 | 7.57 | 7.89 | 4% | – |
| CC(C)[C@@H]1CC(=O)C(C)(C)/C=C/c2ccc3ccc(nc3c2)N(C)NC(=O)[C@@H]2CCCN(N2)C(=O)[C@H](C)NC1=O [Compound (25)] | 20 | 0.8 | 8.21 | 7.76 | 26.2% | – |
| C[C@@H]1NC(=O)[C@H](CC2CCCNC2)NC(=O)C(C)(C)/C=C/c2ccc3ccc(nc3c2)N(C)NC(=O)[C@@H]2CCCN(N2)C1=O (some centres unmarked) [Compound (35)] | 10 | 0.41 | 5.96 | 5.96 | 37% | – |
| C[C@@H]1NC(=O)[C@H](C[C@@H]2CCCN(C)C2)OC(=O)C(C)(C)/C=C/c2ccc3ccc(nc3c2)N(C)NC(=O)[C@@H]2CCCN(N2)C1=O [Compound (36)] | 7.5 | 0.42 | 5.85 | 6.41 | 19% | – |
